Columns and labels:
[1] = system: Tetranychus cinnabarinus; test: Leaf-disc spraying method, insecticidal activity; type: in vivo; conditions: 500 mg/L, spray 2.5 mL, investigated after 24 h, blank control 0%, read-out: mortality rate
Method: The bactericidal or insecticidal activity of the nitrosamine impurity compound P08 was determined according to the existing technical standards or specifications (e.g., Chinese agricultural industry standard NY/T 1156.4-2006, pesticides guidelines for laboratory bioactivity tests, bactericide, part 4: potted plant test for fungicide control of powdery mildew on wheat; Chinese agricultural industry standard NY/T 1156.5-2006, pesticides guidelines for laboratory bioactivity tests, bactericide, part 5: detached leaf test for fungicide inhibition of Rhizoctonia solani on faba bean; Chinese agricultural industry standard […], pesticides guidelines for laboratory bioactivity tests, insecticide, part 6: the immersion test for insecticide activity; Chinese agricultural industry standard NY/T 1154.9-2008, pesticides guidelines for laboratory bioactivity tests, insecticide, part 9: spraying method).
According to the Chinese agricultural industry standard NYT 1154.13-2008, pesticides guidelines for laboratory bioactivity tests, insecticide, part 13: leaf-disc spraying method, the Tetranychus cinnabarinus were inoculated on a leaf-disc of faba bean as the biological test materials. […]

[2] = system: Salmonella Typhimurium TA97a; test: Ames test, plate incorporation method, TA97a; type: cell-based
Method: (§1) Salmonella Typhimurium TA97a, TA98, TA100, TA102, and TA1535 from MOLT OX, USA, were purchased from Shanghai Bioplus Biotech.
(§2) Rat liver S9 from Shanghai Bioplus Biotech. Co., Ltd.
(§3) The experiments were performed using the plate incorporation method.
(§4) Dose selection: The experiments were performed using 5 mg, 2.5 mg, 1.25 mg, 0.625 mg, 0.3125 mg, and 0.15625 mg per dish.
(§5) 0.1 ml of frozen bacterial solutions TA97a, TA98, TA100, TA102 and TA1535 were inoculated into the 10 ml nutrient broth mediums respectively, and cultured at 37° C. (100/min) for 10 h with shaking (100 times/min). 2.0 ml of top layer medium containing 0.5 mmol/L histidine −0.5 mmol/L biotin was dispensed into test tubes, sterilized by 0.103 MPa for 20 min, and kept in a water bath at 50° C. Then, 0.1 ml of the test substance solution, 0.5 ml of the S9 mixture (when metabolic activation was required) and 0.1 ml of the bacterial solution were added into each tube successively, mixed sufficiently, and poured into the bottom layer agar plates quickly. Then, the plates were turned to distribute even. After being placed horizontally for condensation and solidification, the plates were inverted and incubated in an incubator at 37° C. for 48 h, and the number of reverse mutation colonies per dish was counted. Three parallel plates of each dose were made, containing the spontaneous reverse mutation group, the solvent control group and the positive control group.
(§6) The data were expressed as means±standards deviation (x±s), and SPSS 19.0 was used for calculation of data analysis.
(§7) If the test substance tested by the above test strain is negative both with and without S9, then the test substance is determined to be mutagenic negative.

[3] = system: Salmonella Typhimurium TA100; test: Ames test, plate incorporation method, TA100; type: cell-based
Method: as §1, §2, §3, §4, §5, §6, §7

[4] = system: Salmonella typhimurium; test: Ames test, overall result determination; type: cell-based; conditions: in the presence and absence of metabolic activation system
Method: Whether nitrosamine impurity compound P08 is genotoxic (capable of mutagenicity or carcinogenesis) was detected.
as §7

[5] = system: Salmonella Typhimurium TA98; test: Ames test, plate incorporation method, TA98; type: cell-based
Method: as §1, §2, §3, §4, §5, §6, §7

[6] = Stability of solutions (control solution and sample solution at room temperature); type: physicochemical
Method: Control stock solution: 7.5 mg of the nitrosamine compound P08 (purity≥98%) was weighed into a 100 ml volumetric flask, dissolved and diluted with acetonitrile to volume (volumetric solution 1A). 1.0 mL of the volumetric solution 1A was added into a 100 ml volumetric flask, and diluted with acetonitrile to volume (volumetric solution 1B). 1.0 mL of the volumetric solution 1B was added into a 20 ml volumetric flask, and diluted with acetonitrile to volume to obtain the control stock solution.
Control solution: 1.0 mL of the control stock solution was added into a 10 ml volumetric flask, and diluted with acetonitrile to volume to obtain the control solution.
Sample solution: 10 varenicline tartrate tablets were placed in a 10 ml volumetric flask, added with 3 mL of purified water and 3 mL of acetonitrile, sonicated for 30s, then diluted with acetonitrile to volume and mixed evenly.
The control solution and the sample solution were placed at room temperature, then injected for analysis at intervals of 0, 2, 4, 6, 8, 10, 12 hours, and the peak area ratio of each time point to the zero point (i.e., peak area change rate) was calculated.

SMILES: O=NN1CC2CC(C1)c1cc3nccnc3cc12 [P08]
- mortality at 500 µg/mL [1]: 19.6%
- number of reverse mutation colonies per dish (x ± s) ([2]; +S9, 156.25 μg/dish): 209 ± 16
- number of reverse mutation colonies per dish (x ± s) ([2]; +S9, 312.5 μg/dish): 248 ± 13
- number of reverse mutation colonies per dish (x ± s) ([2]; +S9, 625 μg/dish): 242 ± 17
- number of reverse mutation colonies per dish (x ± s) ([2]; +S9, 1250 μg/dish): 279 ± 5
- number of reverse mutation colonies per dish (x ± s) ([2]; +S9, 2500 μg/dish): 297 ± 8
- number of reverse mutation colonies per dish (x ± s) ([2]; +S9, 5000 μg/dish): 310 ± 19
- number of reverse mutation colonies per dish (x ± s) ([2]; −S9, 156.25 μg/dish): 158 ± 11
- number of reverse mutation colonies per dish (x ± s) ([2]; −S9, 312.5 μg/dish): 175 ± 6
- number of reverse mutation colonies per dish (x ± s) ([2]; −S9, 625 μg/dish): 175 ± 12
- number of reverse mutation colonies per dish (x ± s) ([2]; −S9, 1250 μg/dish): 160 ± 15
- number of reverse mutation colonies per dish (x ± s) ([2]; −S9, 2500 μg/dish): 165 ± 10
- number of reverse mutation colonies per dish (x ± s) ([2]; −S9, 5000 μg/dish): 159 ± 5
- number of reverse mutation colonies per dish (x ± s) ([3]; TA100, +S9, 156.25 μg/dish): 225 ± 9
- number of reverse mutation colonies per dish (x ± s) ([3]; TA100, +S9, 312.5 μg/dish): 234 ± 6
- number of reverse mutation colonies per dish (x ± s) ([3]; TA100, +S9, 625 μg/dish): 271 ± 11
- number of reverse mutation colonies per dish (x ± s) ([3]; TA100, +S9, 1250 μg/dish): 287 ± 13
- number of reverse mutation colonies per dish (x ± s) ([3]; TA100, +S9, 2500 μg/dish): 364 ± 19
- number of reverse mutation colonies per dish (x ± s) ([3]; TA100, +S9, 5000 μg/dish): 378 ± 18
- number of reverse mutation colonies per dish (x ± s) ([3]; TA100, −S9, 156.25 μg/dish): 218 ± 20
- number of reverse mutation colonies per dish (x ± s) ([3]; TA100, −S9, 312.5 μg/dish): 234 ± 31
- number of reverse mutation colonies per dish (x ± s) ([3]; TA100, −S9, 625 μg/dish): 224 ± 3
- number of reverse mutation colonies per dish (x ± s) ([3]; TA100, −S9, 1250 μg/dish): 220 ± 10
- number of reverse mutation colonies per dish (x ± s) ([3]; TA100, −S9, 2500 μg/dish): 193 ± 25
- number of reverse mutation colonies per dish (x ± s) ([3]; TA100, −S9, 5000 μg/dish): 206 ± 25
- mutagenicity determination (Ames test) [4]: mutagenic positive
- number of reverse mutation colonies per dish (x ± s) ([5]; TA98, +S9, 156.25 μg/dish): 33 ± 6
- number of reverse mutation colonies per dish (x ± s) ([5]; TA98, +S9, 312.5 μg/dish): 34 ± 1
- number of reverse mutation colonies per dish (x ± s) ([5]; TA98, +S9, 625 μg/dish): 35 ± 2
- number of reverse mutation colonies per dish (x ± s) ([5]; TA98, +S9, 1250 μg/dish): 41 ± 6
- number of reverse mutation colonies per dish (x ± s) ([5]; TA98, +S9, 2500 μg/dish): 59 ± 4
- number of reverse mutation colonies per dish (x ± s) ([5]; TA98, +S9, 5000 μg/dish): 53 ± 6
- number of colonies relative to that of the solvent control ([5]; TA98, adding S9, 2500 μg/dish): more than twice
- number of reverse mutation colonies per dish (x ± s) ([5]; TA98, −S9, 156.25 μg/dish): 29 ± 2
- number of reverse mutation colonies per dish (x ± s) ([5]; TA98, −S9, 312.5 μg/dish): 27 ± 3
- number of reverse mutation colonies per dish (x ± s) ([5]; TA98, −S9, 625 μg/dish): 28 ± 2
- number of reverse mutation colonies per dish (x ± s) ([5]; TA98, −S9, 1250 μg/dish): 30 ± 3
- number of reverse mutation colonies per dish (x ± s) ([5]; TA98, −S9, 2500 μg/dish): 31 ± 3
- number of reverse mutation colonies per dish (x ± s) ([5]; TA98, −S9, 5000 μg/dish): 32 ± 2
- peak area change rate within 12 hours ([6]; control solution (acetonitrile)): < 12%
- peak area change rate within 12 hours ([6]; sample solution (tablets in water/acetonitrile)): < 3.5%
